The supplement of paper PMC10307832

Key:
Assay in all cases: relative viability (nuclei count vs DMSO), 5 days (fraction); higher = more cells survive
Entinostat + Luminespib = compound: Nc1ccccc1NC(=O)c1ccc(CNC(=O)OCc2cccnc2)cc1 [Entinostat] + CCNC(=O)c1noc(-c2cc(C(C)C)c(O)cc2O)c1-c1ccc(CN2CCOCC2)cc1 [Luminespib] (partner 0.01 µM)
Method in brief: (§1)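 Relative viability was taken as the ratio of nuclei in treated wells to nuclei in vehicle wells. Lung cancer cell lines in 1536-well plates received compounds by pin tool one day after seeding, either one drug alone or a fixed anchor-drug dose plus five library-drug doses (not always all listed) in √10 steps. Nuclei were counted on 4× images after 5 days of treatment, and values are medians of duplicate plates.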

[1] = compound: C1COCCN1C2=NC(=NC3=C2OC4=C3C=CC=N4)C5=CC(=CC=C5)NC(=O)C6=CN=C(C=C6)N + Cc1nc(Nc2ncc(C(=O)Nc3c(C)cccc3Cl)s2)cc(N2CCN(CCO)CC2)n1 [Dasatinib] (partner 0.075 µM)
Method in brief: as §1

Entinostat + Lapatinib = compound: Nc1ccccc1NC(=O)c1ccc(CNC(=O)OCc2cccnc2)cc1 [Entinostat] + CS(=O)(=O)CCNCc1ccc(-c2ccc3ncnc(Nc4ccc(OCc5cccc(F)c5)c(Cl)c4)c3c2)o1 [Lapatinib] (partner 2 µM)
Method in brief: as §1

SGI-1776 + Pictilisib = compound: CN1CCC(CNc2ccc3ncc(-c4cccc(OC(F)(F)F)c4)n3n2)CC1 [SGI-1776] + CS(=O)(=O)N1CCN(Cc2cc3nc(-c4cccc5[nH]ncc45)nc(N4CCOCC4)c3s2)CC1 [Pictilisib] (partner 1 µM)
Method in brief: as §1

| Cell Line | relative viability (Entinostat + Luminespib; first compound 0.02 µM) | relative viability (Entinostat + Luminespib; first compound 0.06325 µM) | relative viability (Entinostat + Luminespib; first compound 0.2 µM) | relative viability (Entinostat + Luminespib; first compound 0.6325 µM) | relative viability (Entinostat + Luminespib; first compound 2 µM) | relative viability ([1]; first compound 0.02 µM) | relative viability ([1]; first compound 0.06325 µM) | relative viability ([1]; first compound 0.2 µM) | relative viability ([1]; first compound 0.6325 µM) | relative viability ([1]; first compound 2 µM) | relative viability (Entinostat + Lapatinib; first compound 0.02 µM) | relative viability (Entinostat + Lapatinib; first compound 0.06325 µM) | relative viability (Entinostat + Lapatinib; first compound 0.2 µM) | relative viability (Entinostat + Lapatinib; first compound 0.6325 µM) | relative viability (Entinostat + Lapatinib; first compound 2 µM) | relative viability (SGI-1776 + Pictilisib; first compound 0.08 µM) | relative viability (SGI-1776 + Pictilisib; first compound 0.8 µM) | relative viability (SGI-1776 + Pictilisib; first compound 2.53 µM) | relative viability (SGI-1776 + Pictilisib; first compound 8 µM) |
| --- | --- | --- | --- | --- | --- | --- | --- | --- | --- | --- | --- | --- | --- | --- | --- | --- | --- | --- | --- |
| 201T | 1.03 | 1.04 | 0.995 | 0.925 | 0.747 | 0.55 | 0.558 | 0.606 | 0.57 | 0.579 | 1.02 | 1.03 | 0.959 | 0.937 | 0.665 | 0.7 | 0.718 | 0.687 | 0.6 |
| NCI-H2023 | 0.648 | 0.528 | 0.313 | 0.111 | 0.0763 | 0.632 | 0.648 | 0.47 | 0.484 | 0.251 | 0.633 | 0.585 | 0.261 | 0.129 | 0.0771 | 0.23 | 0.23 | 0.202 | 0.147 |
| NCI-H1395 | 0.711 | 0.663 | 0.634 | 0.659 | 0.6 | 0.388 | 0.359 | 0.394 | 0.353 | 0.369 | 1.1 | 1.21 | 0.901 | 0.566 | 0.569 | 0.591 | 0.64 | 0.542 | 0.494 |
| NCI-H23 | 0.187 | 0.21 | 0.229 | 0.199 | 0.18 | 0.82 | – | 0.582 | 0.724 | 0.482 | 1.17 | 1.13 | 1.02 | 0.616 | 0.476 | 0.558 | 0.448 | 0.449 | 0.387 |
| LXF-289 | 0.754 | 0.675 | 0.739 | 0.494 | 0.354 | 0.228 | 0.249 | 0.219 | 0.17 | 0.175 | 0.884 | 0.916 | 0.841 | 0.647 | 0.481 | 0.699 | 0.837 | 0.806 | 0.67 |
| NCI-H1563 | 0.515 | 0.503 | 0.478 | 0.483 | 0.47 | 0.505 | 0.453 | 0.437 | 0.461 | 0.578 | 0.915 | 1.01 | 0.891 | 0.821 | 0.581 | 0.707 | 0.588 | 0.583 | 0.467 |
| EKVX | 0.986 | 0.913 | 0.794 | 0.801 | 0.427 | 0.593 | 0.584 | 0.513 | 0.463 | 0.571 | 0.254 | 0.219 | 0.209 | 0.161 | 0.153 | 0.421 | 0.453 | 0.455 | 0.379 |
